Measured values published in BindingDB's records for PubMed 10496952 (University of Virginia, 1999).
Values joined by “and” are separate entries in the source; they are usually repeats but may differ in a detail not shown here. Equal entries are not always repeated.

Key:
[1] = target: T1, Adenosine receptor A3 (Homo sapiens, UniProt P0DMS8)
T1 sequence (P0DMS8 whole entry): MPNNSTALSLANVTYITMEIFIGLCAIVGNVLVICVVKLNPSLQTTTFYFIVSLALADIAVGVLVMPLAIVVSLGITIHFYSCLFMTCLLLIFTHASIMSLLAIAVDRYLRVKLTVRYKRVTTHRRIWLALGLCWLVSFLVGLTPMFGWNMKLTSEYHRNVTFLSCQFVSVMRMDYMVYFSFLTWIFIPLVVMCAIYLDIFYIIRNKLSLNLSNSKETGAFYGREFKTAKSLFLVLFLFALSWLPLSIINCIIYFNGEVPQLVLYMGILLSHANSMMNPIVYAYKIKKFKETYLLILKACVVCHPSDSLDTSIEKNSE

[2] = target: T2, Adenosine receptor A2b (Homo sapiens, UniProt P29275)
T2 sequence (P29275 whole entry): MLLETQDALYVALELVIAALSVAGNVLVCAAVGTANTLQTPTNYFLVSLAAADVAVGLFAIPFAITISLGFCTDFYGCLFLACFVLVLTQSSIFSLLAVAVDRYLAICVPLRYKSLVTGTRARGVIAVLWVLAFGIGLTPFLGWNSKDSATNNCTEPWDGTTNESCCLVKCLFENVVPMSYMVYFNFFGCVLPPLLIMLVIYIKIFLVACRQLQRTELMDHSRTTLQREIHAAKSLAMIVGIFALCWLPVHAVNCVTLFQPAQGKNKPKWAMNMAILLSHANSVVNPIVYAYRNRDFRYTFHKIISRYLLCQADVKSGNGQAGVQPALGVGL

[3] = target: T3, Adenosine receptor A1 (Homo sapiens, UniProt P30542)
T3 sequence (P30542 whole entry): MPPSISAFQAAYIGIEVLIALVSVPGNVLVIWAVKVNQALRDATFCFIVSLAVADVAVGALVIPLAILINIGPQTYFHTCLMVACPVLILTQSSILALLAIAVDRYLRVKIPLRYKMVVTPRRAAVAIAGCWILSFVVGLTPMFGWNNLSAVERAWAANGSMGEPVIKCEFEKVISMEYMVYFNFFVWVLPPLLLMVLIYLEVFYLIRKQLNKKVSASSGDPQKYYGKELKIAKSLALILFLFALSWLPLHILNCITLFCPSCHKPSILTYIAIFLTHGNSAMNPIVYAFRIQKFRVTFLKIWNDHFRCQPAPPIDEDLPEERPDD

[4] = target: Adenosine receptor A2a (Homo sapiens, UniProt P29274)
Sequence of Adenosine receptor A2a (P29274 whole entry): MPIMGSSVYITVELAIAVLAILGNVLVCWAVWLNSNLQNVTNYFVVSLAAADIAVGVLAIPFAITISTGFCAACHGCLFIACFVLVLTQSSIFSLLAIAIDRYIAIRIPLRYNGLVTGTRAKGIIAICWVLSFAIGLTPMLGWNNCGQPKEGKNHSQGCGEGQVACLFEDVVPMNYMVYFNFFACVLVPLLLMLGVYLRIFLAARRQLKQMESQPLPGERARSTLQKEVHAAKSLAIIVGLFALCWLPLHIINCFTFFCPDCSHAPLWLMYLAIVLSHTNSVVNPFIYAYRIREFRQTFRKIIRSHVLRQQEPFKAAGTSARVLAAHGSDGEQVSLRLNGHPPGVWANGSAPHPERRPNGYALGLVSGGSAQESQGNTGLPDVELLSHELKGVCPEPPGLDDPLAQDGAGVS

Ki [2]	SMILES	other results
	CCCn1c(=O)c2nc[nH]c2n(CCC)c1=O	Ki [1]: 0.509 µM
0.0123 µM	CCn1c(=O)c2[nH]c(-c3ccccc3)nc2n(CC)c1=O [1,3-Diethyl-8-phenyl-3,7-dihydro-purine-2,6-dione]	
> 10 µM	Nc1nc(Cl)nc2c1ncn2[C@@H]1O[C@H](CO)[C@H](O)C1O (stereo partly specified) [2-Chloroadenosine]	
	CCCn1c(=O)[nH]c(=O)c2[nH]cnc21 [3-Propylxanthine (enprofylline)]	Ki [3]: > 10 µM
> 10 µM	CCNC(=O)C(=O)Nc1nc(Nc2ccccc2)c2ncn([C@@H]3O[C@H](CO)[C@@H](O)[C@H]3O)c2n1 [AB-NECA]	
> 10 µM	Nc1ccc(CCNc2nc(N)c3ncn(C4OC(CO)C(O)C4O)c3n2)cc1I (stereo unspecified) [CAS_190964]	
0.0516 µM	CCCn1c(=O)c2[nH]c(-c3ccc(C=CC(=O)O)cc3)nc2n(CCC)c1=O [NSC_129447]	
0.04 µM and 0.03 µM	CCCn1c(=O)c2nc(-c3ccc(OCC(=O)O)cc3)[nH]c2n(Cc2ccc(N)c(I)c2)c1=O [NSC_163889]	Ki [3]: 0.07 µM; Ki [4]: 0.095 µM; Ki [1]: 0.015 µM
